In the kinase profiling compilation of Christmann-Franck et al. (2016):

Tests used:
Experiment in all cases: KINOMEscan competition binding
Settings in all cases: compound 10.0 µM
[1] = target: ACVR2B (human) (UniProt Q13705)
[2] = target: BMPR1A (human) (UniProt P36894)
[3] = target: CDKL2 (human) (UniProt Q92772)
[4] = target: CHEK1 (human) (UniProt O14757)
[5] = target: CIT (human) (UniProt O14578)
[6] = target: CSNK1D (human) (UniProt P48730)
[7] = target: CSNK2A1 (human) (UniProt P68400)
[8] = target: CaMK1 (human) (UniProt Q14012)
[9] = target: DCLK2 (human) (UniProt Q8N568)
[10] = target: EPHB2 (human) (UniProt P29323)
[11] = target: ERBB4 (human) (UniProt Q15303)
[12] = target: FLT3 (human) (UniProt P36888)
[13] = target: LATS1 (human) (UniProt O95835)
[14] = target: LATS2 (human) (UniProt Q9NRM7)
[15] = target: MAP3K1 (human) (UniProt Q13233)
[16] = target: MAP3K5 (human) (UniProt Q99683)
[17] = target: MAP4K4 (human) (UniProt O95819)
[18] = target: MAPKAPK5 (human) (UniProt Q8IW41)
[19] = test system: MET (human), P08581 [Y1235D]
[20] = target: MYLK (human) (UniProt Q15746)
[21] = target: NEK3 (human) (UniProt P51956)
[22] = target: PDGFRA (human) (UniProt P16234)
[23] = target: PIM2 (human) (UniProt Q9P1W9)
[24] = target: PKN2 (human) (UniProt Q16513)
[25] = target: PRKAA1 (human) (UniProt Q13131)
[26] = target: PRPF4B (human) (UniProt Q13523)
[27] = target: RPS6KA6 KD2 (human) (UniProt Q9UK32)
[28] = target: SGK110 (human) (UniProt P0C264)
[29] = target: SRPK3 (human) (UniProt Q9UPE1)
[30] = target: STK17B (human) (UniProt O94768)
[31] = target: STK33 (human) (UniProt Q9BYT3)
[32] = target: STK39 (human) (UniProt Q9UEW8)
[33] = target: SYK (human) (UniProt P43405)
[34] = target: TGFBR2 (human) (UniProt P37173)
[35] = target: TTK (human) (UniProt P33981)
[36] = target: TYK2 JH2 pseudokinase (human) (UniProt P29597)
[37] = target: FRK (human) (UniProt P42685)
[38] = target: PLK3 (human) (UniProt Q9H4B4)
[39] = target: SRMS (human) (UniProt Q9H3Y6)

Sequence of MYLK (human) (Q15746 whole entry, looked up): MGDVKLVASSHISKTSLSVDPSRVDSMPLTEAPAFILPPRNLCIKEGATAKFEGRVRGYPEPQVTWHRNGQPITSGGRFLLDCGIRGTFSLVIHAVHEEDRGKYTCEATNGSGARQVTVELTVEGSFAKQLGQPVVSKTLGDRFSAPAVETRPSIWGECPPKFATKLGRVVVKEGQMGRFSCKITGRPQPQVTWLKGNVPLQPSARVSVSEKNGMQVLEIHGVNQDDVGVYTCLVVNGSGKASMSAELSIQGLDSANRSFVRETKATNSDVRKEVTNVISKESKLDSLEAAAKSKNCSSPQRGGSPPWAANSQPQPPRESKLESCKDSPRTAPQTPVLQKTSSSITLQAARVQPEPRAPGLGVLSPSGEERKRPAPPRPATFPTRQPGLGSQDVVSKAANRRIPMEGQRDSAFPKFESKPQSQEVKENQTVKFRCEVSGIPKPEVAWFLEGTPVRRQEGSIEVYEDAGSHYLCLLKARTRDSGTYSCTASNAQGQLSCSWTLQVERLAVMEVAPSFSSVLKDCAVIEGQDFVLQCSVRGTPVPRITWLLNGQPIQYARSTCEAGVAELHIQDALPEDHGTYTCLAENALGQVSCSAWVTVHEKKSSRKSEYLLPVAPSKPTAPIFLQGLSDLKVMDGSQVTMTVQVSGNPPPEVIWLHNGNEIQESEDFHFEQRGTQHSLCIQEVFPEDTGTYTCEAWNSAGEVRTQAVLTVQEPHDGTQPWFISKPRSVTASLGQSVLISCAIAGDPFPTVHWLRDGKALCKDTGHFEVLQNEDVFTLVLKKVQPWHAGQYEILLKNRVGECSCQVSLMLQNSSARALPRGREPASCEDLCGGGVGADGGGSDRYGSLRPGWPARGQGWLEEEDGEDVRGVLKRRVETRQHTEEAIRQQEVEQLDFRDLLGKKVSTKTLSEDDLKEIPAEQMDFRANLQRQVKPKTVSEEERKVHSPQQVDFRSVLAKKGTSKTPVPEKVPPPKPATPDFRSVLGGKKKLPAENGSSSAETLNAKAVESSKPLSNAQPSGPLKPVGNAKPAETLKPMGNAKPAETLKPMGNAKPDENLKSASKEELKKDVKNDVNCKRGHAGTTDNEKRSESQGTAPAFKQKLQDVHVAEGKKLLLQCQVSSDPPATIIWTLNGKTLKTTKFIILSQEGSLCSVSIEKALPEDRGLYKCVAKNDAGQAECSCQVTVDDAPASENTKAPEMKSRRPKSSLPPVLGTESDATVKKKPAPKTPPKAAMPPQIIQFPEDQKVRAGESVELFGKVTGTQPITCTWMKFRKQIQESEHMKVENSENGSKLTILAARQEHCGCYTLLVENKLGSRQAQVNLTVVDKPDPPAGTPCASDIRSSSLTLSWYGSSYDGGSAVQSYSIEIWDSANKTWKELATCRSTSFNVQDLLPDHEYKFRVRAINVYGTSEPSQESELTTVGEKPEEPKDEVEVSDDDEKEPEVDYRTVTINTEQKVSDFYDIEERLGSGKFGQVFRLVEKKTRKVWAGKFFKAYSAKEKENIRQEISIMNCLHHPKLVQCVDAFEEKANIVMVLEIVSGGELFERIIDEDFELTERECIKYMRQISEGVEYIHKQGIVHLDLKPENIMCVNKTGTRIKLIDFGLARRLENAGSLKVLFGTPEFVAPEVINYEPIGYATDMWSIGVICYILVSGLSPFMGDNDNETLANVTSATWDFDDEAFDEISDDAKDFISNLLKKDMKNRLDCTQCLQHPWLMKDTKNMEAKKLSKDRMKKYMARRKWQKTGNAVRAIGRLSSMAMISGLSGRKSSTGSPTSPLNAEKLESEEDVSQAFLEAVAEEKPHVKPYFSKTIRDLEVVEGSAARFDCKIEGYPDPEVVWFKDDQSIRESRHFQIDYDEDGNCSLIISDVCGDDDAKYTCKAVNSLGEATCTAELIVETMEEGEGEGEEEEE
Sequence of CSNK2A1 (human) (P68400 whole entry, looked up): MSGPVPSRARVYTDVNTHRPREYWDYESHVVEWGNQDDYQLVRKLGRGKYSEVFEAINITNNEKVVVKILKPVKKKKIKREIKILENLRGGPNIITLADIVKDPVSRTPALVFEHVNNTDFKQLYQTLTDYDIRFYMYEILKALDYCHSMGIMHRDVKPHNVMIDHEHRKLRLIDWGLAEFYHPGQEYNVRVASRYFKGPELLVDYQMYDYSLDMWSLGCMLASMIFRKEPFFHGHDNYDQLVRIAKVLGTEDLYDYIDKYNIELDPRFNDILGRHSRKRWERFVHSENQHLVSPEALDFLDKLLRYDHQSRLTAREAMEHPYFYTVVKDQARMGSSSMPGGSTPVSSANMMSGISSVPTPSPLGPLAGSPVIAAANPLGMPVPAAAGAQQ
Sequence of CIT (human) (O14578 whole entry, looked up): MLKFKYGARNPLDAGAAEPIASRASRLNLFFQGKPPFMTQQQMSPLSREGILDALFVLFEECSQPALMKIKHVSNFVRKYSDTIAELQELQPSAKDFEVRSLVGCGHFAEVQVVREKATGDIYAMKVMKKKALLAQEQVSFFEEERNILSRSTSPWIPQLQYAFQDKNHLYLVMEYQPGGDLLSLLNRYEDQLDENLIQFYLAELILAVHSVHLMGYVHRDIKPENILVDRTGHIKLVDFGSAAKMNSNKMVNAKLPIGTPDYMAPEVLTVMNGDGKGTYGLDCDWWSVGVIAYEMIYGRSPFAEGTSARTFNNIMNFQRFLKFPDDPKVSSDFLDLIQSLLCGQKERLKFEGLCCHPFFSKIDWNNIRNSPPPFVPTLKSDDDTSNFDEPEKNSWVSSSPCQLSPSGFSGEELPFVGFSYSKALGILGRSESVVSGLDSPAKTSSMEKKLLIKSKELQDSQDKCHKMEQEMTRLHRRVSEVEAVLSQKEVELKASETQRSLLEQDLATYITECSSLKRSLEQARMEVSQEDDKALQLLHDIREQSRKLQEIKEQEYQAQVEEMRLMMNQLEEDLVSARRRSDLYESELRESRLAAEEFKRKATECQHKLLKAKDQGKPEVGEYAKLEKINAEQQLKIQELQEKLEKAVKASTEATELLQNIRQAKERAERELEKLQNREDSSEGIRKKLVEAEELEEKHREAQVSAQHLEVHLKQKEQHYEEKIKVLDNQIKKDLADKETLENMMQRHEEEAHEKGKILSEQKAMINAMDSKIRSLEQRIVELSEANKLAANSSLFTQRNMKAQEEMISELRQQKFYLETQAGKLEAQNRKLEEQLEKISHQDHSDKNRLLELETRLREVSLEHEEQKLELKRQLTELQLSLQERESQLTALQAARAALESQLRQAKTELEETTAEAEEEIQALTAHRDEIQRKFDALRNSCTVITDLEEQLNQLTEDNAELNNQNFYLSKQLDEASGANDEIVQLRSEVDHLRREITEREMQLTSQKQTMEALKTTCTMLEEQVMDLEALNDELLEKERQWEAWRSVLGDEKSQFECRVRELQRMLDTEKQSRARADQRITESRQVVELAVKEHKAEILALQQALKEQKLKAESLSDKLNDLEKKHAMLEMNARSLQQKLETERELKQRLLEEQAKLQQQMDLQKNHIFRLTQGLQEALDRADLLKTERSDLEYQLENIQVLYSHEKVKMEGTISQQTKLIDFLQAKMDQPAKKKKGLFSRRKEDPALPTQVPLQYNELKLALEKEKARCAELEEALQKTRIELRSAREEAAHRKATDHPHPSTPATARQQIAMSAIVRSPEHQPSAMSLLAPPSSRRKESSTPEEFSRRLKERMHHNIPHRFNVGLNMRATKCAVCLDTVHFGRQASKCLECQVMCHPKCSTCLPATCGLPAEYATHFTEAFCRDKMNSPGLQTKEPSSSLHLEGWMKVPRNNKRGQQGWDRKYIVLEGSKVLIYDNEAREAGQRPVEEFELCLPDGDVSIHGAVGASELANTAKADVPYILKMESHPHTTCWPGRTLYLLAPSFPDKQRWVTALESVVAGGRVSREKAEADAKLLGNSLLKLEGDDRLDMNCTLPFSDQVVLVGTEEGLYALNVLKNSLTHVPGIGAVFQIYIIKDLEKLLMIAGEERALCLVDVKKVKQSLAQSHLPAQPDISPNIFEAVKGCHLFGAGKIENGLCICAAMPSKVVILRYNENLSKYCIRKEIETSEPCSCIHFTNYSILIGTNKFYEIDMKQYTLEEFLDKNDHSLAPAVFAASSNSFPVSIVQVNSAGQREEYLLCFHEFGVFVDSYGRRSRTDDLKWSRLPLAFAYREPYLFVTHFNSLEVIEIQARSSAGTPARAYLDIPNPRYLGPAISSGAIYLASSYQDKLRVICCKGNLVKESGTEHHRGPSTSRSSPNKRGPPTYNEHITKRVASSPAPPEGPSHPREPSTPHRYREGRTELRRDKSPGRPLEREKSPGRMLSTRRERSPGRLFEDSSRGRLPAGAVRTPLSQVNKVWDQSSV
Sequence of BMPR1A (human) (P36894 whole entry, looked up): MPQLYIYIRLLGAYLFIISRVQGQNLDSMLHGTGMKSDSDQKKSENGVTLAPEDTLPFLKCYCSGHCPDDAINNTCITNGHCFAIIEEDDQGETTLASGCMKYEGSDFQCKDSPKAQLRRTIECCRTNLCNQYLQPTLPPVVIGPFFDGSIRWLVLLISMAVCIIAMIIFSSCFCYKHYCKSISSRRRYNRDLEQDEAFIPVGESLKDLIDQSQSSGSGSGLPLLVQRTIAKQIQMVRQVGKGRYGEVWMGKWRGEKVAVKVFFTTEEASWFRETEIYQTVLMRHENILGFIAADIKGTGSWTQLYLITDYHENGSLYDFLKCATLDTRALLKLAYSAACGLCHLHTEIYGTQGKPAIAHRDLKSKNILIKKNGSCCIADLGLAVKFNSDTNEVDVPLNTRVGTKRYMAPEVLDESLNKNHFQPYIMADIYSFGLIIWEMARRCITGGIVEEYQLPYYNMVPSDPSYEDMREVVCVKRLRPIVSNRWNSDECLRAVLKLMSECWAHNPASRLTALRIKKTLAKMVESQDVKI

Which kinase still bound, per cent of control [1] does the source give for `CNC(=O)c1cc(Oc2ccc(NC(=O)Nc3ccc(Cl)c(C(F)(F)F)c3)cc2)ccn1` here?
The kinase still bound, per cent of control was 75%.

And the kinase still bound, per cent of control [2]?
The kinase still bound, per cent of control was 100%.

What about the kinase still bound, per cent of control [3] of the same compound?
The kinase still bound, per cent of control was 0.3%.

What about the kinase still bound, per cent of control [4] of the same compound?
Its kinase still bound, per cent of control is 91%.

And the kinase still bound, per cent of control [5]?
Its kinase still bound, per cent of control is 17%.

And the kinase still bound, per cent of control [6]?
Its kinase still bound, per cent of control is 100%.

And the kinase still bound, per cent of control [7]?
Its kinase still bound, per cent of control is 100%.

What about the kinase still bound, per cent of control [8] of the same compound?
Its kinase still bound, per cent of control is 82%.

And the kinase still bound, per cent of control [9]?
The kinase still bound, per cent of control was 100%.

And the kinase still bound, per cent of control [10]?
Its kinase still bound, per cent of control is 17%.

And the kinase still bound, per cent of control [11]?
The kinase still bound, per cent of control was 100%.

What about the kinase still bound, per cent of control [12] of the same compound?
Its kinase still bound, per cent of control is 0.45%.

And the kinase still bound, per cent of control [13]?
The kinase still bound, per cent of control was 79%.

And the kinase still bound, per cent of control [14]?
Its kinase still bound, per cent of control is 85%.

What about the kinase still bound, per cent of control [15] of the same compound?
The kinase still bound, per cent of control was 64%.

And the kinase still bound, per cent of control [16]?
The kinase still bound, per cent of control was 90%.

And the kinase still bound, per cent of control [17]?
Its kinase still bound, per cent of control is 18%.

And the kinase still bound, per cent of control [18]?
The kinase still bound, per cent of control was 100%.

And the kinase still bound, per cent of control [19]?
Its kinase still bound, per cent of control is 70%.

And the kinase still bound, per cent of control [20]?
Its kinase still bound, per cent of control is 83%.

And the kinase still bound, per cent of control [21]?
The kinase still bound, per cent of control was 70%.

What about the kinase still bound, per cent of control [22] of the same compound?
The kinase still bound, per cent of control was 0%.

And the kinase still bound, per cent of control [23]?
Its kinase still bound, per cent of control is 91%.

What about the kinase still bound, per cent of control [24] of the same compound?
The kinase still bound, per cent of control was 100%.

And the kinase still bound, per cent of control [25]?
Its kinase still bound, per cent of control is 42%.

And the kinase still bound, per cent of control [26]?
The kinase still bound, per cent of control was 100%.

What about the kinase still bound, per cent of control [27] of the same compound?
The kinase still bound, per cent of control was 38%.

What about the kinase still bound, per cent of control [28] of the same compound?
The kinase still bound, per cent of control was 94%.

What about the kinase still bound, per cent of control [29] of the same compound?
The kinase still bound, per cent of control was 90%.

What about the kinase still bound, per cent of control [30] of the same compound?
Its kinase still bound, per cent of control is 59%.

What about the kinase still bound, per cent of control [31] of the same compound?
Its kinase still bound, per cent of control is 33%.

And the kinase still bound, per cent of control [32]?
The kinase still bound, per cent of control was 100%.

What about the kinase still bound, per cent of control [33] of the same compound?
Its kinase still bound, per cent of control is 88%.

What about the kinase still bound, per cent of control [34] of the same compound?
The kinase still bound, per cent of control was 35%.

And the kinase still bound, per cent of control [35]?
The kinase still bound, per cent of control was 15%.

What about the kinase still bound, per cent of control [36] of the same compound?
Its kinase still bound, per cent of control is 100%.

Which results are given for `C[C@@H](Oc1cc(-c2cnn(C3CCNCC3)c2)cnc1N)c1c(Cl)ccc(F)c1Cl`?
kinase still bound, per cent of control [1]: 38%; kinase still bound, per cent of control [2]: 0.15%; kinase still bound, per cent of control [3]: 5.4%; kinase still bound, per cent of control [4]: 91%; kinase still bound, per cent of control [5]: 62%; kinase still bound, per cent of control [6]: 100%; kinase still bound, per cent of control [7]: 65%; kinase still bound, per cent of control [8]: 37%; kinase still bound, per cent of control [9]: 1.2%; kinase still bound, per cent of control [10]: 24%; kinase still bound, per cent of control [12]: 7.8%; kinase still bound, per cent of control [37]: 15%; kinase still bound, per cent of control [13]: 100%; kinase still bound, per cent of control [14]: 56%; kinase still bound, per cent of control [15]: 4.4%; kinase still bound, per cent of control [16]: 100%; kinase still bound, per cent of control [18]: 68%; kinase still bound, per cent of control [20]: 82%; kinase still bound, per cent of control [21]: 100%; kinase still bound, per cent of control [22]: 92%; kinase still bound, per cent of control [23]: 100%; kinase still bound, per cent of control [24]: 26%; kinase still bound, per cent of control [38]: 85%; kinase still bound, per cent of control [25]: 8%; kinase still bound, per cent of control [26]: 48%; kinase still bound, per cent of control [27]: 35%; kinase still bound, per cent of control [28]: 3.4%; kinase still bound, per cent of control [39]: 54%; kinase still bound, per cent of control [29]: 15%; kinase still bound, per cent of control [30]: 100%; kinase still bound, per cent of control [31]: 26%; kinase still bound, per cent of control [32]: 99%; kinase still bound, per cent of control [34]: 100%; kinase still bound, per cent of control [35]: 50%; kinase still bound, per cent of control [36]: 2.3%
